Results: patent publication US20120309767A1, “PROCESS FOR THE PREPARATION OF ALPHA FORM OF IMATINIB MESYLATE” (priority 2010, published 2012)
Read-outs that look alike come from different tables or passages of the source.

Conditions: 40° C. and 75 RH; for Identification by IR: vs working standard of Imatinib Mesylate (Form-α)
Experimental: FTIR (Fourier transform infrared spectrophotometer) • Make: SHIMADZU, IR Prestige-21 • Sample preparation: KBr pellets • 3. […] HPLC: Used Agilent 1200, VWD detector, system gradient Instrument conditions are:
A stability study was performed on the alpha form of imatinib mesylate at 40° C. and 75 RH for 3 months.

Assay [by HPLC] (on anhydrous) (1M): 99.94%
Descriptions (1M): White
Water content by KF (1M): 0.55 % w/w
Identification by IR (1M): concordant
Assay [by HPLC] (on anhydrous) (2M): 99.70%
Descriptions (2M): White
Related Substance [by HPLC] Unknown impurity RRT = 0.81 (2M): 0.03 % w/w
Water content by KF (2M): 0.61 % w/w
Identification by IR (2M): concordant
Assay [by HPLC] (on anhydrous) (3M): 99.75%
Descriptions (3M): White
Related Substance [by HPLC] Known impurities: Impurity-1 (3M): 0.02 % w/w
Related Substance [by HPLC] Unknown impurity RRT = 0.81 (3M): 0.02 % w/w
Water content by KF (3M): 0.56 % w/w
Identification by IR (3M): concordant
Assay [by HPLC] (on anhydrous) (Initial): 99.98%
Descriptions (Initial): White
Related Substance [by HPLC] Total impurities (Initial): 0.04 % w/w
Related Substance [by HPLC] Unknown impurity RRT = 0.81 (Initial): 0.04 % w/w
Water content by KF (Initial): 0.52 % w/w
Identification by IR (Initial): concordant
SMILES: CS(=O)(=O)O.Cc1ccc(NC(=O)c2ccc(CN3CCN(C)CC3)cc2)cc1Nc1nccc(-c2cccnc2)n1 [Example 2]
